Molecules are shown by their SMILES.

The test system of this experiment is Micrococcus luteus. Kind of experiment: Antimicrobial activity against Micrococcus luteus at 10 ug after 24 hrs by paper disk method. The note with it: read-out: DIZ. The experiment is classed as functional.

On to `CC(C)[C@H](NC(=O)Cc1ccccc1)C(=O)N[C@H](CC(=O)O)C(=O)N[C@@H](C)C(=O)N[C@@H](C(=O)NCC(=O)N[C@H](C)C(=O)N[C@@H](Cc1ccccc1)C(=O)O)[C@@H](O)C(C)C`, for which the zone of inhibition at 10 µg/disc came out at 7.1 mm.

`CC[C@H]1OC(=O)[C@H](C)[C@@H](O[C@H]2C[C@@](C)(OC)[C@@H](O)[C@H](C)O2)[C@H](C)[C@@H](O[C@@H]2O[C@H](C)C[C@H](N(C)C)[C@H]2O)[C@](C)(O)C[C@@H](C)C(=O)[C@H](C)[C@@H](O)[C@]1(C)O` [ERYTHROMYCIN]: the zone of inhibition at 10 µg/disc was 25 mm.

The values are drawn from ChEMBL document CHEMBL2010684, “JBIR-78 and JBIR-95: phenylacetylated peptides isolated from Kibdelosporangium sp. AK-AA56” (2012).
